Results reported in patent US9200005B2, “Inhibitor compounds of phosphodiesterase type 10A” (AbbVie Deutschland GmbH & Co. KG, priority 2013, dated 2015).

Assays:
rats [1] = settings: cited from earlier work
rats [2] = settings: PCP (WO 03/093499); cited from earlier work
rats [3] = settings: amphetamine (WO 03/093499); cited from earlier work
PDE10A = PDE10A (UniProt Q9Y233); test: Measurement of PDE activity (HTRF cAMP kit, recombinant PDE10A); format: biochemical, human, rat and mouse; settings: substrate 20 nM, 60 minutes at 29° C.
[4] = Determination of the microsomal half-life / microsomal clearance, rat liver microsomes; format: in vitro ADME; settings: 0.5 μM test substance, 0.25 mg of microsomal protein/mL, NADPH, 37° C.
Method in brief: (§1)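 Compound (0.5 μM) was preincubated 5 min at 37 °C with rat or human liver microsomes (0.25 mg protein/mL) in 0.05 M phosphate pH 7.4, and NADPH (1 mg/mL) was then added. Samples taken at 0-30 min and quenched with acetonitrile were analysed by MS/MS. T½ was derived assuming first-order decay, and clearance […] was calculated from T½ and protein content.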

[5] = Determination of the microsomal half-life / microsomal clearance, human liver microsomes; format: in vitro ADME; settings: 0.5 μM test substance, 0.25 mg of microsomal protein/mL, NADPH, 37° C.
Method in brief: as §1

Molecule | catalepsy on its own (rats [1]; alone (WO 03/093499)) | cataleptic effect of the D2 receptor antagonist haloperidol (rats [1]; with haloperidol (WO 03/093499)) | hyperactivity in rats induced by PCP (rats [2]) | reduction of amphetamine-induced hyperactivity (rats [3]) | IC50 (PDE10A) | Rat mCl [4] | Human mCl [5]
COc1ccc(Cc2nccc3cc(OC)c(OC)cc23)cc1OC [Papaverine, papaverine] | did not cause catalepsy | potentiated | reduced | insignificant |  |  | 
Cn1nc(NCc2ccccc2)c2scc(-c3ccncc3)c2c1=O.O=C(O)C(F)(F)F.O=C(O)C(F)(F)F [Example 50, 7-(benzylamino)-5-methyl-3-(pyridin-4-yl)thieno[2,3-d]pyridazin-4(5H)-one bis(trifluoroacetate)] |  |  |  |  | 100 to 200 nM | ++ (++: <100 μl min^−1 mg^−1) | ++ (++: <100 μl min^−1 mg^−1)
COc1cccc(Oc2nn(C)c(=O)c3c(-c4ccncc4)csc23)c1 [Example 85, 7-(3-methoxyphenoxy)-5-methyl-3-(pyridin-4-yl)thieno[2,3-d]pyridazin-4(5H)-one] |  |  |  |  | 100 to 200 nM | ++ (++: <100 μl min^−1 mg^−1) | ++ (++: <100 μl min^−1 mg^−1)
Cn1nc(OCc2nccs2)c2scc(-c3ccncc3)c2c1=O [Example 58, 5-methyl-3-(pyridin-4-yl)-7-(1,3-thiazol-2-ylmethoxy)thieno[2,3-d]pyridazin-4(5H)-one] |  |  |  |  | < 100 nM | ++ (++: <100 μl min^−1 mg^−1) | ++ (++: <100 μl min^−1 mg^−1)
Cn1nc(OCc2ccco2)c2scc(-c3ccncc3)c2c1=O [Example 52, 7-(furan-2-ylmethoxy)-5-methyl-3-(pyridin-4-yl)thieno[2,3-d]pyridazin-4(5H)-one] |  |  |  |  | 100 to 200 nM | + (+: 100-220 μl min^−1 mg^−1) | ++ (++: <100 μl min^−1 mg^−1)
Cn1nc(OCc2ccccc2)c2scc(-c3ccncc3)c2c1=O [Example 54, 7-(benzyloxy)-5-methyl-3-(pyridin-4-yl)thieno[2,3-d]pyridazin-4(5H)-one] |  |  |  |  | 100 to 200 nM | + (+: 100-220 μl min^−1 mg^−1) | ++ (++: <100 μl min^−1 mg^−1)
3-[4-oxo-7-(pyridin-4-yl)-5-(2,2,2-trifluoroethyl)-4,5-dihydrothieno[2,3-d]pyridazin-3-yl]benzonitrile [Example 127] |  |  |  |  | < 100 nM | ++ (++: <100 μl min^−1 mg^−1) | ++ (++: <100 μl min^−1 mg^−1)
O=c1c2c(-c3cncnc3)csc2c(-c2ccncc2)nn1CC1CC1 [Example 146, 5-(cyclopropylmethyl)-7-(pyridin-4-yl)-3-(pyrimidin-5-yl)thieno[2,3-d]pyridazin-4(5H)-one] |  |  |  |  | < 100 nM | ++ (++: <100 μl min^−1 mg^−1) | ++ (++: <100 μl min^−1 mg^−1)
CCn1nc(-c2ccncc2)c2scc(-c3ccncc3)c2c1=O [Example 136, 5-ethyl-3,7-di(pyridin-4-yl)thieno[2,3-d]pyridazin-4(5H)-one] |  |  |  |  | < 100 nM | ++ (++: <100 μl min^−1 mg^−1) | ++ (++: <100 μl min^−1 mg^−1)
Cn1nc(OCc2cccc(C#N)c2)c2scc(-c3ccncc3)c2c1=O.O=C(O)C(F)(F)F [Example 59, 3-({[5-methyl-4-oxo-3-(pyridin-4-yl)-4,5-dihydrothieno[2,3-d]pyridazin-7-yl]oxy}methyl)benzonitrile trifluoroacetate] |  |  |  |  | < 100 nM | ++ (++: <100 μl min^−1 mg^−1) | ++ (++: <100 μl min^−1 mg^−1)
Cn1nc(OCc2ccc3c(c2)OCO3)c2scc(-c3ccncc3)c2c1=O [Example 69, 7-(1,3-benzodioxol-5-ylmethoxy)-5-methyl-3-(pyridin-4-yl)thieno[2,3-d]pyridazin-4(5H)-one] |  |  |  |  | 100 to 200 nM | + (+: 100-220 μl min^−1 mg^−1) | ++ (++: <100 μl min^−1 mg^−1)
COc1ccc(-c2nn(C)c(=O)c3c(-c4ccncc4)csc23)cc1 [Example 96, 7-(4-methoxyphenyl)-5-methyl-3-(pyridin-4-yl)thieno[2,3-d]pyridazin-4(5H)-one] |  |  |  |  | < 100 nM | ++ (++: <100 μl min^−1 mg^−1) | + (+: 100-220 μl min^−1 mg^−1)
